target: T1, C-C chemokine receptor type 10 (Homo sapiens) (UniProt P46092); assay: Antagonist activity against human CCR10 expressed in human KJMGER8 cells assessed as inhibition of human recombinant CTACK-induced increase in intracellular calcium level at 100 nmol/L pre-incubated for 30 mins before human recombinant CTACK stimulation for 5 mins by FLIPR assay; format: functional, cell-based
T1 sequence (whole entry): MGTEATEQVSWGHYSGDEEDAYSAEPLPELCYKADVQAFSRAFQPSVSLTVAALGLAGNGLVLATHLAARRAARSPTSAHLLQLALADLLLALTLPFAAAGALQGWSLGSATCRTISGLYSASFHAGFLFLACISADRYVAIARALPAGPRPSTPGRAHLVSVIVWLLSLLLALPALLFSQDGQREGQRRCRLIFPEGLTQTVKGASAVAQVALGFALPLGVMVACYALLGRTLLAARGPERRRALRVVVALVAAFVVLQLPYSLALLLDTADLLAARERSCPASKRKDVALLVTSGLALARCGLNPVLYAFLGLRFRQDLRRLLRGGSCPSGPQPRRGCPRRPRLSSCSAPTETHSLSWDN

SMILES | inhibition [%]
CC(=O)NS(=O)(=O)c1cnn2c(Nc3cc(Cl)ccc3Cl)c(C(=O)N3CCC(c4ccc(F)cc4)CC3)cnc12 | > 100
CCNC(=O)NS(=O)(=O)c1cnn2c(Nc3cc(C)ccc3Cl)c(C(=O)N3CCC(c4ccc(F)cc4)CC3)cnc12 | > 100
Cc1cc(F)ccc1Nc1c(C(=O)N2CCC(c3ccccc3)CC2)cnc2c(S(=O)(=O)NC(=O)C(F)(F)F)cnn12 | > 100
CC(=O)NS(=O)(=O)c1cnn2c(Nc3cccc(Cl)c3Cl)c(C(=O)N3CCC(c4ccc(F)cc4)CC3)cnc12 | > 100
Cc1cc(Nc2c(C(=O)N3CCC(c4ccc(F)cc4)CC3)cnc3c(S(=O)(=O)NC(=O)C4CC4)cnn23)c(Cl)cc1F | > 100
CC1(C(=O)NS(=O)(=O)c2cnn3c(Nc4cc(Cl)ccc4Cl)c(C(=O)N4CCC(c5ccc(F)cc5)CC4)cnc23)COC1 | > 100
O=C(NC1CC1)NS(=O)(=O)c1cnn2c(Nc3ccc(F)cc3Cl)c(C(=O)N3CCC(c4ccc(F)cc4)CC3)cnc12 | > 100
CCNC(=O)NS(=O)(=O)c1cnn2c(Nc3ccccc3Cl)c(C(=O)N3CCC(c4ccc(F)cc4)CC3)cnc12 | > 100
O=C(NS(=O)(=O)c1cnn2c(NCc3ccccc3)c(C(=O)N3CCC(c4ccccc4)CC3)cnc12)C1CC1 | 89.4
Cc1cc(F)ccc1Nc1c(C(=O)N2CCC(c3ccccc3)CC2)cnc2c(S(=O)(=O)NC(=O)Nc3ccccc3)cnn12 | 63.7
O=CNS(=O)(=O)c1cnn2c(Nc3cc(Cl)ccc3Cl)c(C(=O)N3CCC(c4ccc(F)cc4)CC3)cnc12 | > 100
CC(=O)NS(=O)(=O)c1cnn2c(Nc3cc(C)ccc3Cl)c(C(=O)N3CCC4(CC3)OCc3ccccc34)cnc12 | > 100
Cc1ccc(Cl)c(Nc2c(C(=O)N3CCC4(CC3)OCc3ccccc34)cnc3c(S(=O)(=O)NC(=O)NCC(F)(F)F)cnn23)c1 | 75.3
Cc1ccc(F)c(Nc2c(C(=O)N3CCC4(CC3)OCc3ccccc34)cnc3c(S(=O)(=O)NC(=O)NC4CC4(F)F)cnn23)c1 (stereo not drawn) | > 100
CCC(=O)NS(=O)(=O)c1cnn2c(Nc3cc(F)ccc3F)c(C(=O)N3CCC(c4ccc(F)cc4)CC3)cnc12 | > 100
O=C(c1cnc2c(S(=O)(=O)Nc3cccnn3)cnn2c1Nc1cc(Cl)ccc1Cl)N1CCC(c2ccc(F)cc2)CC1 | > 100
Cc1ccc(Cl)c(Nc2c(C(=O)N3CCC4(CC3)OCc3ccccc34)cnc3c(S(=O)(=O)NC(=O)C4(C)COC4)cnn23)c1 | > 100
CCONS(=O)(=O)c1cnn2c(Nc3cc(Cl)ccc3Cl)c(C(=O)N3CCC(c4ccc(F)cc4)CC3)cnc12 | > 100
CONS(=O)(=O)c1cnn2c(Nc3cc(Cl)ccc3Cl)c(C(=O)N3CCC(c4ccc(F)cc4)CC3)cnc12 | > 100
CC(=O)NS(=O)(=O)c1cnn2c(Nc3cc(Cl)ccc3F)c(C(=O)N3CCC(c4ccc(F)cc4)CC3)cnc12 | > 100
CCC(=O)NS(=O)(=O)c1cnn2c(Nc3cc(C)ccc3Cl)c(C(=O)N3CCC(c4ccc(F)cc4)CC3)cnc12 | > 100
CCNC(=O)NS(=O)(=O)c1cnn2c(Nc3ccc(F)cc3C)c(C(=O)N3CCC(c4ccccc4)CC3)cnc12 | 72.6
O=C(c1cnc2c(S(=O)(=O)Nc3ncccn3)cnn2c1Nc1cc(Cl)ccc1Cl)N1CCC(c2ccc(F)cc2)CC1 | > 100
CCNS(=O)(=O)c1cnn2c(Nc3cc(C)ccc3Cl)c(C(=O)N3CCC(c4ccc(F)cc4)CC3)cnc12 | 87.8
CNCC(=O)NS(=O)(=O)c1cnn2c(Nc3ccc(F)cc3C)c(C(=O)N3CCC(c4ccccc4)CC3)cnc12 | 58.8
Cc1ccc(Cl)c(Nc2c(C(=O)N3CCC(c4ccc(F)cc4)CC3)cnc3c(S(=O)(=O)NC(N)=O)cnn23)c1 | > 100
Cc1cc(F)ccc1Nc1c(C(=O)N2CCC(c3ccccc3)CC2)cnc2c(S(=O)(=O)NS(C)(=O)=O)cnn12 | 88.8

SMILES | inhibition [%]
O=C(c1cnc2c(S(=O)(=O)Nc3nncs3)cnn2c1Nc1cc(Cl)ccc1Cl)N1CCC(c2ccc(F)cc2)CC1 | > 100
COC(=O)NS(=O)(=O)c1cnn2c(Nc3ccccc3Cl)c(C(=O)N3CCC(c4ccccc4)CC3)cnc12 | 99.6
CCC(=O)NS(=O)(=O)c1cnn2c(Nc3cc(C)ccc3F)c(C(=O)N3CCC(c4ccc(F)cc4)CC3)cnc12 | > 100
Cc1cc(F)ccc1Nc1c(C(=O)N2CCC(c3ccccc3)CC2)cnc2c(S(=O)(=O)NC(=O)N3CCOCC3)cnn12 | 85.9
CCNC(=O)NS(=O)(=O)c1cnn2c(NCc3ccccc3)c(C(=O)N3CCC(c4ccccc4)CC3)cnc12 | 95.1
CCNC(=O)NS(=O)(=O)c1cnn2c(Nc3cc(C)ccc3Cl)c(C(=O)N3CC4(C3)CN(c3ccc(F)cc3)C4)cnc12 | 24.3
CCC(=O)NS(=O)(=O)c1cnn2c(Nc3ccc(F)cc3Cl)c(C(=O)N3CCC4(CC3)OCc3ccccc34)cnc12 | > 100
CCC(=O)NS(=O)(=O)c1cnn2c(Nc3cc(C)ccc3Cl)c(C(=O)N3CC4(C3)CN(c3ccc(F)cc3)C4)cnc12 | 90.2
CCC(=O)NS(=O)(=O)c1cnn2c(Nc3cc(C)c(F)cc3Cl)c(C(=O)N3CCC(c4ccc(F)cc4)CC3)cnc12 | > 100
COCCNS(=O)(=O)c1cnn2c(Nc3ccccc3Cl)c(C(=O)N3CCC(c4ccc(F)cc4)CC3)cnc12 | 28.9
O=C(NS(=O)(=O)c1cnn2c(Nc3cc(Cl)ccc3Cl)c(C(=O)N3CCC4(CC3)OCc3ccccc34)cnc12)C1CC1 | > 100
CC(=O)NS(=O)(=O)c1cnn2c(Nc3cc(F)ccc3F)c(C(=O)N3CCC(c4ccc(F)cc4)CC3)cnc12 | > 100
Cc1cc(F)ccc1Nc1c(C(=O)N2CCC(c3ccccc3)CC2)cnc2c(S(=O)(=O)NC(=O)C3CC3)cnn12 | 93.4
CCNC(=O)NS(=O)(=O)c1cnn2c(Nc3ccc(C)cc3F)c(C(=O)N3CCC4(CC3)OCc3ccccc34)cnc12 | > 100
CCNC(=S)NS(=O)(=O)c1cnn2c(Nc3ccc(F)cc3C)c(C(=O)N3CCC(c4ccccc4)CC3)cnc12 | 81.8
CCNC(=O)NS(=O)(=O)c1cnn2c(Nc3cc(Cl)ccc3Cl)c(C(=O)N3CCC(c4ccc(F)cc4)CC3)cnc12 | 96.7
COC(=O)NS(=O)(=O)c1cnn2c(Nc3ccc(F)cc3C)c(C(=O)N3CCC(c4ccccc4)CC3)cnc12 | 90.7
Cc1cc(F)ccc1Nc1c(C(=O)N2CCC(c3ccccc3)CC2)cnc2c(S(=O)(=O)/N=C/N(C)C)cnn12 | 68.9
CCC(=O)NS(=O)(=O)c1cnn2c(Nc3ccc(C)cc3F)c(C(=O)N3CCC4(CC3)OCc3ccccc34)cnc12 | > 100
Cc1ccc(F)c(Nc2c(C(=O)N3CCC(c4ccc(F)cc4)CC3)cnc3c(S(=O)(=O)NC(=O)NC4CC4)cnn23)c1 | > 100
Cc1cc(F)ccc1Nc1c(C(=O)N2CCC(c3ccc(F)cc3)CC2)cnc2c(S(=O)(=O)NC3CC3)cnn12 | > 100
CCNS(=O)(=O)c1cnn2c(Nc3ccc(F)cc3C)c(C(=O)N3CCC(c4ccc(F)cc4)CC3)cnc12 | > 100
CCNC(=O)NS(=O)(=O)c1cnn2c(Nc3ccc(Cl)cc3C)c(C(=O)N3CCC4(CC3)OCc3ccccc34)cnc12 | > 100
CCNC(=O)NS(=O)(=O)c1cnn2c(Nc3ccccc3Cl)c(C(=O)N3CCC(c4ccccc4)CC3)cnc12 | 92.4
CCC(=O)NS(=O)(=O)c1cnn2c(Nc3cc(C)ccc3F)c(C(=O)N3CCC4(CC3)OCc3ccccc34)cnc12 | > 100
CC(=O)NS(=O)(=O)c1cnn2c(Nc3ccc(F)cc3C)c(C(=O)N3CCC(c4ccccc4)CC3)cnc12 | > 100
